Here are results for 32 compounds from patent US20070213359A1 (ACADIA Pharmaceuticals Inc., priority 2005, published 2007).

One test deals with Ghrelin receptor (Homo sapiens, UniProt Q92847). In words: Receptor Selection and Amplification Technology (R-SAT) assay. The conditions noted are these: negative logarithm of ligand concentration causing 50% inhibition of constitutive receptor response; transfected NIH3T3 cells; '—' not defined (nd used separately); read-out: RSAT pIC50 (converted). Also on record: expressed in transfected cells; host or cells: NIH3T3. It counts as cell-based.
Chain of Ghrelin receptor (Q92847 whole entry): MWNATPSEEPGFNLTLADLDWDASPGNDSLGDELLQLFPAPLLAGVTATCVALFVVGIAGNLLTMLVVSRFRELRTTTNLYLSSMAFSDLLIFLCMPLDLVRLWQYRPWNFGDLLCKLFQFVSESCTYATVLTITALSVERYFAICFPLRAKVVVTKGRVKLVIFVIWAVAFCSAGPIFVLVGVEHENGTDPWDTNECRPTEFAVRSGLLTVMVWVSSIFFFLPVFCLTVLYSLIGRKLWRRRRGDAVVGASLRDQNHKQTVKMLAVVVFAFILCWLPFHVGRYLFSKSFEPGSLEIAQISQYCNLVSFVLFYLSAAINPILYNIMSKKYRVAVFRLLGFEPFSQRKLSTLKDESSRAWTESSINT
`CC(=O)c1cn(CCCN2CCC(Oc3cccc(Cl)c3)CC2)c2c(Br)cccc12`: the IC50 was 1 nM.

For the compound `CC(=O)c1cn(CCCN2CCCN(Cc3ccccc3Cl)CC2)c2c(C)cccc12`, the IC50 is 1.26 nM.

For the compound `CC(=O)c1cn(CCCN2CCC(Oc3cccc(Cl)c3)CC2)c2c(C)cccc12`, the IC50 is 10 nM.

Take `CC(=O)c1cn(CCCN2C3CCC2CC(CCc2ccccc2)C3)c2c(Cl)cccc12` (stereo not shown): the IC50 was 12.6 nM.

For `COc1cccc2c(C#N)cn(CCCN3CCCN(Cc4ccc(F)cc4)CC3)c12`, the IC50 is 15.8 nM.

Take `CC(=O)c1cn(CCCN2CCN(Cc3ccc(Cl)cc3Cl)CC2)c2c(C#N)cccc12`: the IC50 was 15.8 nM.

Regarding `CC(=O)c1cn(CCCN2C3CCC2CC(Oc2ccc(F)cc2)C3)c2c(Br)cccc12` (stereo not shown), the IC50 was 15.8 nM.

Consider `COc1cccc2c(C(=O)NCc3cccc(C)c3)cn(CCCN3C4CCC3CC(Oc3ccc(F)cc3)C4)c12` (stereo not shown), for which the IC50 was 15.8 nM.

For `CC(=O)c1cn(CCCN2C3CCC2CC(Oc2ccc(F)cc2)C3)c2c(C)cccc12` (stereo not shown), the IC50 is 20 nM.

As to `CCc1cccc2c(C(C)=O)cn(CCCN3CCCC(Cc4ccccc4Cl)C3)c12` (stereo not shown), the IC50 is 20 nM.

With `CC(=O)c1cn(CCCN2CCC(c3nc(-c4ccncc4)no3)CC2)c2c(C)cccc12`, the IC50 was 31.6 nM.

For the compound `CC(=O)c1cn(CCCN2C3CCC2CC(CCc2ccc(Cl)cc2)C3)c2c(Cl)cccc12` (stereo not shown), the IC50 was 31.6 nM.

As for `CCc1cccc2c(C(C)=O)cn(CCCN3CCCN(CCc4ccccc4)CC3)c12`, the IC50 is 31.6 nM.

On to `COc1cccc2c(C(=O)NCc3cccc(C)c3)cn(CCCN3CCC(Oc4cccc(Cl)c4)CC3)c12`, for which the IC50 was 31.6 nM.

Regarding `COc1cccc2c(C(=O)NCC(C)C)cn(CCCN3CCC(Oc4cccc(Cl)c4)CC3)c12`, the IC50 was 31.6 nM.

In the case of `CC(=O)c1cn(CCCN2CCN(CCOc3ccccc3)CC2)c2c(C#N)cccc12`, the IC50 was 31.6 nM.

Regarding `CC(=O)c1cn(CCCN2CCC(c3nc(-c4cccnc4)no3)CC2)c2c(Br)cccc12`, the IC50 was 39.8 nM.

`CCc1cccc2c(C(C)=O)cn(CCCN3CCN(CCOc4ccccc4)CC3)c12`: the IC50 is 39.8 nM.

Turning to `CC(=O)c1cn(CCCNCCOc2ccccc2)c2c(C)cccc12`, the IC50 is 39.8 nM.

In the case of `CC(=O)c1cn(CCCN2CCCN(CCc3ccccc3)CC2)c2c(C#N)cccc12`, the IC50 was 39.8 nM.

As for `CCc1cccc2c(C(C)=O)cn(CCCN3CCC(c4nc(-c5ccncc5)no4)CC3)c12`, the IC50 is 39.8 nM.

As to `CC(=O)c1cn(CCCN2C3CCC2CC(CCc2ccc(Cl)cc2)C3)c2c(Br)cccc12` (stereo not shown), the IC50 was 39.8 nM.

Take `COc1cccc2c(C(C)=O)cn(CC(C)CN3C4CCC3CC(CCc3ccccc3)C4)c12` (stereo not shown): the IC50 was 50.1 nM.

For the compound `COc1cccc2c(C(=O)NCC(C)C)cn(CCCN3CCN(CCOc4ccc(Cl)cc4)CC3)c12`, the IC50 was 63.1 nM.

Turning to `CC(=O)c1cn(CCCN2CCN(c3ncc(C(F)(F)F)cc3Cl)CC2)c2ncccc12`, the IC50 is 63.1 nM.

As to `CC(=O)c1cn(CCCN2CCN(c3ncc(C(F)(F)F)cc3Cl)CC2)c2c(C#N)cccc12`, the IC50 was 79.4 nM.

For `COc1cccc2c(C(=O)NCC(C)C)cn(CCCN3C4CCC3CC(Oc3ccc(F)cc3)C4)c12` (stereo not shown), the IC50 was 79.4 nM.

For the compound `CC(=O)c1cn(CCCN2C3CCC2CC(CCc2ccc(Cl)cc2)C3)c2c(C)cccc12` (stereo not shown), the IC50 was 100 nM.

On to `CC(=O)c1cn(CCCNCCOc2ccccc2)c2c(Cl)cccc12`, for which the IC50 is 100 nM.

Turning to `CC(=O)c1cn(CCCN2C3CCC2CC(Oc2ccc(F)cc2)C3)c2c(Cl)cccc12` (stereo not shown), the IC50 was 100 nM.

Regarding `CCc1cccc2c(C(C)=O)cn(CCCN3C4CCC3CC(Oc3ccccc3Cl)C4)c12` (stereo not shown), the IC50 is 100 nM.

Take `O=C(c1cn(CCCN2CCCN(Cc3ccc(F)cc3)CC2)c2ncccc12)C(F)(F)F`: the IC50 was 100 nM.

The same test, now with this note: percent inhibition at saturating ligand, normalized to reference ligand Substance P analog = 100%.
Turning to `COc1cccc2c(C(=O)NCc3cccc(C)c3)cn(CCCN3C4CCC3CC(Oc3ccc(F)cc3)C4)c12` (stereo not shown), the “RSAT Eff(%)” value is given as 112%.

`COc1cccc2c(C(=O)NCC(C)C)cn(CCCN3CCN(CCOc4ccc(Cl)cc4)CC3)c12`: the “RSAT Eff(%)” value was 84%.

For `COc1cccc2c(C(=O)NCC(C)C)cn(CCCN3C4CCC3CC(Oc3ccc(F)cc3)C4)c12` (stereo not shown), the “RSAT Eff(%)” value was determined as 147%.

The test is the same for the next values; noted with them: percent inhibition at saturating ligand, normalized to reference ligand Substance P analog = 100%; read-out: RSAT Eff(%).
As for `CC(=O)c1cn(CCCN2CCC(Oc3cccc(Cl)c3)CC2)c2c(Br)cccc12`, the Emax was 92%.

In the case of `CC(=O)c1cn(CCCN2CCCN(Cc3ccccc3Cl)CC2)c2c(C)cccc12`, the Emax stood at 111%.

For `CC(=O)c1cn(CCCN2CCC(Oc3cccc(Cl)c3)CC2)c2c(C)cccc12`, the Emax was 96%.

Consider `CC(=O)c1cn(CCCN2C3CCC2CC(CCc2ccccc2)C3)c2c(Cl)cccc12` (stereo not shown), for which the Emax was 109%.

Regarding `COc1cccc2c(C#N)cn(CCCN3CCCN(Cc4ccc(F)cc4)CC3)c12`, the Emax stood at 109%.

For `CC(=O)c1cn(CCCN2CCN(Cc3ccc(Cl)cc3Cl)CC2)c2c(C#N)cccc12`, the Emax worked out at 92%.

`CC(=O)c1cn(CCCN2C3CCC2CC(Oc2ccc(F)cc2)C3)c2c(Br)cccc12` (stereo not shown): the Emax turned out to be 81%.

On to `CC(=O)c1cn(CCCN2C3CCC2CC(Oc2ccc(F)cc2)C3)c2c(C)cccc12` (stereo not shown), for which the Emax was found to be 98%.

For the compound `CCc1cccc2c(C(C)=O)cn(CCCN3CCCC(Cc4ccccc4Cl)C3)c12` (stereo not shown), the Emax turned out to be 87%.

As for `CC(=O)c1cn(CCCN2CCC(c3nc(-c4ccncc4)no3)CC2)c2c(C)cccc12`, the Emax came out at 137%.

Turning to `CC(=O)c1cn(CCCN2C3CCC2CC(CCc2ccc(Cl)cc2)C3)c2c(Cl)cccc12` (stereo not shown), the Emax was 122%.

With `CCc1cccc2c(C(C)=O)cn(CCCN3CCCN(CCc4ccccc4)CC3)c12`, the Emax came out at 103%.

As for `CC(=O)c1cn(CCCN2CCN(CCOc3ccccc3)CC2)c2c(C#N)cccc12`, the Emax was 86%.

Take `CC(=O)c1cn(CCCN2CCC(c3nc(-c4cccnc4)no3)CC2)c2c(Br)cccc12`: the Emax stood at 119%.

Regarding `CCc1cccc2c(C(C)=O)cn(CCCN3CCN(CCOc4ccccc4)CC3)c12`, the Emax came to 110%.

In the case of `CC(=O)c1cn(CCCNCCOc2ccccc2)c2c(C)cccc12`, the Emax is 100%.

As to `CC(=O)c1cn(CCCN2CCCN(CCc3ccccc3)CC2)c2c(C#N)cccc12`, the Emax worked out at 83%.

With `CCc1cccc2c(C(C)=O)cn(CCCN3CCC(c4nc(-c5ccncc5)no4)CC3)c12`, the Emax was 121%.

Consider `CC(=O)c1cn(CCCN2C3CCC2CC(CCc2ccc(Cl)cc2)C3)c2c(Br)cccc12` (stereo not shown), for which the Emax worked out at 106%.

Take `CC(=O)c1cn(CCCN2CCN(c3ncc(C(F)(F)F)cc3Cl)CC2)c2ncccc12`: the Emax was 91%.

For the compound `CC(=O)c1cn(CCCN2CCN(c3ncc(C(F)(F)F)cc3Cl)CC2)c2c(C#N)cccc12`, the Emax turned out to be 106%.

Turning to `CC(=O)c1cn(CCCNCCOc2ccccc2)c2c(Cl)cccc12`, the Emax was found to be 84%.

For `CC(=O)c1cn(CCCN2C3CCC2CC(Oc2ccc(F)cc2)C3)c2c(Cl)cccc12` (stereo not shown), the Emax was determined as 87%.

Regarding `CCc1cccc2c(C(C)=O)cn(CCCN3C4CCC3CC(Oc3ccccc3Cl)C4)c12` (stereo not shown), the Emax is 101%.

Take `O=C(c1cn(CCCN2CCCN(Cc3ccc(F)cc3)CC2)c2ncccc12)C(F)(F)F`: the Emax was determined as 83%.

Still in this test, the particulars now being: read-out: RSAT Eff(%).
In the case of `COc1cccc2c(C(=O)NCc3cccc(C)c3)cn(CCCN3CCC(Oc4cccc(Cl)c4)CC3)c12`, the Emax was found to be 93%.

Regarding `COc1cccc2c(C(=O)NCC(C)C)cn(CCCN3CCC(Oc4cccc(Cl)c4)CC3)c12`, the Emax is 71%.

In the case of `COc1cccc2c(C(C)=O)cn(CC(C)CN3C4CCC3CC(CCc3ccccc3)C4)c12` (stereo not shown), the Emax stood at 120%.

Take `CC(=O)c1cn(CCCN2C3CCC2CC(CCc2ccc(Cl)cc2)C3)c2c(C)cccc12` (stereo not shown): the Emax stood at 50%.
